# Tests used:
# Type in all cases: in vivo
# [1] = test system: blackgrass (Alopecurus myosuroides); test: Test A postemergence application, visual injury rating 0-100
# Outline: (§1)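 Seeds sown in loam-sand blend got a preemergence directed soil spray, or emerged plants (2-10 cm, one- to two-leaf) got a postemergence spray, of compound in non-phytotoxic solvent with surfactant. After 10 days in greenhouse, injury rated visually versus untreated controls on a 0 (no effect) to 100 (complete control) scale.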
# [2] = test system: ryegrass, Italian (italian ryegrass, Lolium multiflorum); test: as above
# Outline: as §1
# [3] = test system: ragweed (common ragweed, Ambrosia artemisiifolia); test: as above
# Outline: as §1
# [4] = test system: oat, wild (wild oat, Avena fatua); test: as above
# Outline: as §1
# [5] = test system: horseweed (Erigeron canadensis); test: as above
# Outline: as §1
# [6] = test system: galium (catchweed bedstraw, Galium aparine); test: as above
# Outline: as §1
# soybean (Glycine max) [7] = test: as above
# Outline: as §1
# [8] = test system: palmer (palmer amaranth, palmer pigweed, Amaranthus palmeri); test: as above
# Outline: as §1
# kochia (Bassia scoparia) [9] = test: as above
# Outline: as §1
# [10] = test system: wheat (Triticum aestivum); test: as above
# Outline: as §1
# [11] = test system: barnyardgrass (Echinochloa crus-galli); test: as above
# Outline: as §1
# corn (Zea mays) [12] = test: as above
# Outline: as §1
# [13] = test system: green foxtail (Setaria viridis); test: as above
# Outline: as §1
# [14] = test system: blackgrass (Alopecurus myosuroides); test: Test A preemergence soil spray, visual injury rating 0-100; conditions: 10 days
# Outline: as §1
# [15] = test system: ryegrass, Italian (italian ryegrass, Lolium multiflorum); test: as above; conditions: 10 days
# Outline: as §1
# [16] = test system: ragweed (common ragweed, Ambrosia artemisiifolia); test: as above; conditions: 10 days
# Outline: as §1
# [17] = test system: oat, wild (wild oat, Avena fatua); test: as above; conditions: 10 days
# Outline: as §1
# soybean (Glycine max) [18] = test: as above; conditions: 10 days
# Outline: as §1
# [19] = test system: palmer (palmer amaranth, palmer pigweed, Amaranthus palmeri); test: as above; conditions: 10 days
# Outline: as §1
# kochia (Bassia scoparia) [20] = test: as above; conditions: 10 days
# Outline: as §1
# [21] = test system: wheat (Triticum aestivum); test: as above; conditions: 10 days
# Outline: as §1
# [22] = test system: barnyardgrass (Echinochloa crus-galli); test: as above; conditions: 10 days
# Outline: as §1
# corn (Zea mays) [23] = test: as above; conditions: 10 days
# Outline: as §1
# [24] = test system: green foxtail (Setaria viridis); test: as above; conditions: 10 days
# Outline: as §1
# [25] = test system: ducksalad (Heteranthera limosa); test: Test B flooded paddy test, visual plant response rating 0-100; conditions: 250 g ai/ha, Flood, applied to paddy water, evaluated after 13 days
# Outline: (§2)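 Compounds applied to standing paddy water (3 cm above soil, maintained for the test duration) on 2-leaf-stage plants; visual rating vs controls at 13 days, greenhouse.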
# rice (Oryza sativa) = test: as above; conditions: 250 g ai/ha, Flood, applied to paddy water, evaluated after 13 days
# Outline: as §2
# [26] = test system: sedge, umbrella (small-flower umbrella sedge, Cyperus difformis); test: as above; conditions: 250 g ai/ha, Flood, applied to paddy water, evaluated after 13 days
# Outline: as §2
# [27] = test system: barnyardgrass (Echinochloa crusgalli); test: as above; conditions: 250 g ai/ha, Flood, applied to paddy water, evaluated after 13 days
# Outline: as §2
# [28] = 62 g ai/ha, postemergence, 10 days, 0 = no effect, 100 = complete control
# [29] = Postemergence, 16 g ai/ha, greenhouse 10 days, 0 no effect, 100 complete control
# [30] = 62 g ai/ha, 0 = no effect, 100 = complete control
smiles,measurement,setting,value
CC1(C(=O)NC2C=CC(C(=O)O)C2)CN(c2cc(Cl)c(F)c(Cl)c2)C(=O)O1 (stereo not shown) [Compound 124],Blackgrass plant response rating (0-100),[1]; [28],90
same,Blackgrass plant response rating (0 to 100 scale),[1]; [29],80
same,"Ryegrass, Italian plant response rating (0-100)",[2]; [28],90
same,"Ryegrass, Italian plant response rating (0 to 100 scale)",[2]; [29],30
same,Ragweed plant response rating (0-100),[3]; [28],20
same,Ragweed plant response rating (0 to 100 scale),[3]; [29],0
same,"Oat, Wild plant response rating (0-100)",[4]; [28],90
same,"Oat, Wild plant response rating (0 to 100 scale)",[4]; [29],30
same,Horseweed plant response rating (0-100),[5]; [28],60
same,Horseweed plant response rating (0 to 100 scale),[5]; [29],0
same,Galium plant response rating (0-100),[6]; [28],90
same,Galium plant response rating (0 to 100 scale),[6]; [29],70
same,Soybean plant response rating (0-100),soybean (Glycine max) [7]; [28],70
same,Soybean plant response rating (0 to 100 scale),soybean (Glycine max) [7]; [29],40
same,"Pigweed, Palmer plant response rating (0-100)",[8]; [28],70
same,"Pigweed, Palmer plant response rating (0 to 100 scale)",[8]; [29],50
same,Kochia plant response rating (0-100),kochia (Bassia scoparia) [9]; [28],90
same,Kochia plant response rating (0 to 100 scale),kochia (Bassia scoparia) [9]; [29],30
same,Wheat plant response rating (0-100),[10]; [28],90
same,Wheat plant response rating (0 to 100 scale),[10]; [29],80
same,Barnyardgrass plant response rating (0-100),[11]; [28],90
same,Barnyardgrass plant response rating (0 to 100 scale),[11]; [29],70
same,Corn plant response rating (0-100),corn (Zea mays) [12]; [28],100
same,Corn plant response rating (0 to 100 scale),corn (Zea mays) [12]; [29],60
same,"Foxtail, Green plant response rating (0-100)",[13]; [28],80
same,"Foxtail, Green plant response rating (0 to 100 scale)",[13]; [29],10
same,Blackgrass plant response rating,"[14]; 16 g ai/ha, 0 to 100 scale",20
same,Blackgrass plant response rating (0-100),[14]; [30],30
same,"Ryegrass, Italian plant response rating","[15]; 16 g ai/ha, 0 to 100 scale",0
same,"Ryegrass, Italian plant response rating (0-100)",[15]; [30],70
same,Ragweed plant response rating,"[16]; 16 g ai/ha, 0 to 100 scale",0
same,Ragweed plant response rating (0-100),[16]; [30],0
same,"Oat, Wild plant response rating","[17]; 16 g ai/ha, 0 to 100 scale",0
same,"Oat, Wild plant response rating (0-100)",[17]; [30],30
same,Soybean plant response rating,"soybean (Glycine max) [18]; 16 g ai/ha, 0 to 100 scale",0
same,Soybean plant response rating (0-100),soybean (Glycine max) [18]; [30],0
same,"Pigweed, Palmer plant response rating","[19]; 16 g ai/ha, 0 to 100 scale",0
same,"Pigweed, Palmer plant response rating (0-100)",[19]; [30],30
same,Kochia plant response rating,"kochia (Bassia scoparia) [20]; 16 g ai/ha, 0 to 100 scale",0
same,Kochia plant response rating (0-100),kochia (Bassia scoparia) [20]; [30],10
same,Wheat plant response rating,"[21]; 16 g ai/ha, 0 to 100 scale",20
same,Wheat plant response rating (0-100),[21]; [30],90
same,Barnyardgrass plant response rating,"[22]; 16 g ai/ha, 0 to 100 scale",0
same,Barnyardgrass plant response rating (0-100),[22]; [30],40
same,Corn plant response rating,"corn (Zea mays) [23]; 16 g ai/ha, 0 to 100 scale",0
same,Corn plant response rating (0-100),corn (Zea mays) [23]; [30],50
same,"Foxtail, Green plant response rating","[24]; 16 g ai/ha, 0 to 100 scale",0
same,"Foxtail, Green plant response rating (0-100)",[24]; [30],80
same,"Plant response rating, Ducksalad (0 to 100 scale, 0 is no effect and 100 is complete control)",[25],85
same,"Plant response rating, Rice (0 to 100 scale, 0 is no effect and 100 is complete control)",rice (Oryza sativa),15
same,"Plant response rating, Sedge, Umbrella (0 to 100 scale, 0 is no effect and 100 is complete control)",[26],30
same,"Plant response rating, Barnyardgrass (0 to 100 scale, 0 is no effect and 100 is complete control)",[27],10

# Reference: US20260285850A1, “SUBSTITUTED OXAZOLIDINONES AND IMIDAZOLINONES AS HERBICIDES” (FMC CORPORATION, priority 2023, published 2026)
